This series in a line: Log P by HPLC on reversed phase columns (EEC directive 79/831 Annex V.A8). The following applies: method [a]: LC-UV, acidic range, 0.1% formic acid in water and acetonitrile as eluent. The series is classed as physicochemical. Here is the method: Measurement of Log P values was performed according to EEC directive 79/831 Annex V.A8 by HPLC (High Performance Liquid Chromatography) on reversed phase columns with the following methods: • ^[a] Log P value is determined by measurement of LC-UV, in an acidic range, with 0.1% formic acid in water and acetonitrile as eluent (linear gradient from 10% acetonitrile to 95% acetonitrile). • ^[b] Log P value is determined by measurement of LC-UV, in a neutral range, with 0.001 molar ammonium acetate solution in water and acetonitrile as eluent (linear gradient from 10% acetonitrile to 95% acetonitrile). • ^[c] Log P value is determined by measurement of LC-UV, in an acidic range, with 0.1% phosphoric acid and acetonitrile as eluent (linear gradient from 10% acetonitrile to 95% acetonitrile).
If more than one Log P value is available within the same method, all the values are given and separated by “+”.
Calibration was done with straight-chain alkan-2-ones (with 3 to 16 carbon atoms) with known Log P values (measurement of Log P values using retention times with linear interpolation between successive alkanones).

Setting [1] is: reversed phase HPLC columns, Table 1.

Regarding `CC1COC(Cn2cncc2Cl)(c2ccc(Oc3ccc(Cl)cc3)cc2Cl)O1` (mixture of isomers) [Compound I-09], the LogP (Table 1) was 3.64^[a].
On the same count and under the same terms, the same measure for `CC1COC(Cn2cncc2Br)(c2ccc(Oc3ccc(Cl)cc3)cc2Cl)O1` (racemic) [Compound I-23]: 3.68^[a]; for `C#Cc1cncn1CC1(c2ccc(Oc3ccc(Cl)cc3)cc2Cl)OCC(C)O1` (racemic) [Compound I-26]: 3.15 ^[a]; for `CC1COC(Cn2cncc2Br)(c2ccc(Oc3ccc(C(F)(F)F)cc3)cc2Cl)O1` (racemic) [Compound I-31]: 3.85 ^[a].
Take `CC1COC(Cn2cncc2C#C[Si](C)(C)C)(c2ccc(Oc3ccc(Cl)cc3)cc2Cl)O1` (racemic) [I-RP-03]: the LogP (Table 2 (I-RP compounds)) was 4.90 ^[a].
Usually chromatographic logP stands for a lipophilicity value derived from retention on a column. A low value points to lower lipophilicity. The molecule `Clc1ccc(Oc2ccc(C3(Cn4cncc4Cl)OCCO3)c(Cl)c2)cc1` [Compound I-01, 5-chloro-1-[[2-[2-chloro-4-(4-chlorophenoxy)phenyl]-1,3-dioxolan-2-yl]methyl]imidazole] showed a chromatographic logP under setting [1] of 3.29.
The same measure, in the same setting: the same measure for `Clc1ccc(Oc2ccc(C3(Cn4cncc4Br)OCCO3)c(Cl)c2)cc1` [Compound I-02, 5-bromo-1-[[2-[2-chloro-4-(4-chlorophenoxy)phenyl]-1,3-dioxolan-2-yl]methyl]imidazole]: 3.35.
As to `Clc1cc(Oc2ccc(I)cc2)ccc1C1(Cn2cncc2Cl)OCCO1` [Compound I-03], the LogP (Table 1) is 3.82^[a].
In the case of `FC(F)(F)c1cc(Oc2ccc(Cl)cc2)ccc1C1(Cn2cncc2Cl)OCCO1` [Compound I-04, 5-chloro-1-[[2-[4-(4-chlorophenoxy)-2-(trifluoromethyl)phenyl]-1,3-dioxolan-2-yl]methyl]imidazole], the chromatographic logP under setting [1] came out at 3.75.
Turning to `FC(F)(F)c1cc(Oc2ccc(Cl)nc2)ccc1C1(Cn2cncc2Cl)OCCO1` [Compound I-05], the LogP (Table 1) is 2.58^[a].
The same measure, in the same setting: under `FC(F)(F)c1cc(Oc2ccc(Br)cc2)ccc1C1(Cn2cncc2Cl)OCCO1` [Compound I-06] stands 3.77^[a].
The same measure, in the same setting: under `Clc1cc(Oc2ccc(Br)cc2)ccc1C1(Cn2cncc2Cl)OCCO1` [Compound I-07] stands 3.53^[a].
For `Clc1cc(Oc2ccc(I)cc2)ccc1C1(Cn2cncc2Br)OCCO1` [Compound I-08], the LogP (Table 1) is 3.76^[a].
On the same count and under the same terms, under `FC(F)(F)c1cncn1CC1(c2ccc(Oc3ccc(Cl)cc3)cc2Cl)OCCO1` [Compound I-10] stands 4.64^[a].
Same read-out and setting: under `Fc1cncn1CC1(c2ccc(Oc3ccc(Cl)cc3)cc2Cl)OCCO1` [Compound I-11] stands 2.88^[a].
In turn, `CC1COC(Cn2cncc2F)(c2ccc(Oc3ccc(Cl)cc3)cc2Cl)O1` (stereo not shown) [Compound I-12, 1-[[2-[2-chloro-4-(4-chlorophenoxy)phenyl]-4-methyl-1,3-dioxolan-2-yl]methyl]-5-fluoro-imidazole] yielded a chromatographic logP under setting [1] of 3.06.
Take `Clc1ccc(Oc2ccc(C3(Cn4cncc4Cl)OCCO3)c(Cl)c2)cn1` [Compound I-13]: the LogP (Table 1) is 2.42^[a].
Still for that read-out and setting: under `Clc1ccc(Oc2ccc(C3(Cn4cncc4Cl)OCCO3)c(Cl)c2)nc1` [Compound I-14] stands 2.66^[a]; under `Fc1cncn1CC1(c2ccc(Oc3ccc(Cl)cc3)cc2C(F)(F)F)OCCO1` [Compound I-15], 3.06^[a]; under `Fc1cncn1CC1(c2ccc(Oc3ccc(Br)cc3)nc2C(F)(F)F)OCCO1` [Compound I-16], 2.78^[a].
As for `Fc1nc(Oc2ccc(Cl)cc2)ccc1C1(Cn2cncc2F)OCCO1` [Compound I-17], under “Table 1”, the LogP is 2.34^[a].
`Fc1cncn1CC1(c2ccc(Oc3ccc(Cl)cc3)nc2C(F)(F)F)OCCO1` [Compound I-18, 6-(4-chlorophenoxy)-3-[2-[(5-fluoroimidazol-1-yl)methyl]-1,3-dioxolan-2-yl]-2-(trifluoromethyl)pyridine] returned a chromatographic logP under setting [1] of 2.42.
On the same count and under the same terms, the same measure for `Fc1cncn1CC1(c2ccc(Oc3ccc(C(F)(F)F)nc3)nc2C(F)(F)F)OCCO1` [Compound I-19, 3-[2-[(5-fluoroimidazol-1-yl)methyl]-1,3-dioxolan-2-yl]-2-(trifluoromethyl)-6-[[6-(trifluoromethyl)-3-pyridyl]oxy]pyridine]: 2.53.
Regarding `Fc1cncn1CC1(c2ccc(Oc3ccc(Br)nc3)nc2C(F)(F)F)OCCO1` [Compound I-20], the LogP (Table 1) was 2.17^[a].
On to `Clc1cc(Oc2ccc(Br)cc2)ccc1C1(Cn2cncc2Br)OCCO1` [Compound I-21], for which, where the note is “Table 1”, the LogP is 3.48^[a].
For the molecule `C#Cc1cncn1CC1(c2ccc(Oc3ccc(Cl)cc3)cc2Cl)OCCO1` [Compound I-22], under “Table 1”, the LogP was 2.94^[a].
The same measure, in the same setting: under `C[Si](C)(C)C#Cc1ccc(Oc2ccc(C3(Cn4cncc4Br)OCCO3)c(Cl)c2)cc1` [Compound I-24] stands 4.98 ^[a]; under `C#Cc1ccc(Oc2ccc(C3(Cn4cncc4C#C)OCCO3)c(Cl)c2)cc1` [Compound I-25], 2.76 ^[a]; under `FC(F)(F)c1cc(Oc2ccc(Cl)cc2)ccc1C1(Cn2cncc2Br)OCCO1` [Compound I-27], 3.58 ^[a].
With `C#Cc1cncn1CC1(c2ccc(Oc3ccc(Cl)cc3)cc2C(F)(F)F)OCCO1` [Compound I-28], the LogP (Table 1) is 3.13 ^[a].
Consider `FC(F)(F)c1ccc(Oc2ccc(C3(Cn4cncc4Br)OCCO3)c(Cl)c2)cc1` [Compound I-29], for which, where the note is “Table 1”, the LogP was 3.44 ^[a].
Take `C#Cc1cncn1CC1(c2ccc(Oc3ccc(C(F)(F)F)cc3)cc2Cl)OCCO1` [Compound I-30, 1-[(2-{2-chloro-4-[4-(trifluoromethyl)phenoxy]phenyl}-1,3-dioxolan-2-yl)methyl]-5-ethynyl-1H-imidazole]: the chromatographic logP (Table 1) was 3.04.
Regarding `CC1COC(Cn2cncc2C#N)(c2ccc(Oc3ccc(C(F)(F)F)cc3)cc2Cl)O1` (stereo not shown) [Compound I-32, 1-{[2-{2-chloro-4-[4-(trifluoromethyl)phenoxy]phenyl}-4-methyl-1,3-dioxolan-2-yl]methyl}-1H-imidazole-5-carbonitrile], the chromatographic logP under setting [1] was determined as 4.08.
With `N#Cc1cncn1CC1(c2ccc(Oc3ccc(Cl)cc3)cc2Cl)OCCO1` [Compound I-33], under “Table 1”, the LogP is 3.78 ^[a].
Consider `N#Cc1cncn1CC1(c2ccc(Oc3ccc(C(F)(F)F)cc3)cc2Cl)OCCO1` [Compound I-34], for which the LogP (Table 1) was 3.92 ^[a].
Still for that read-out and setting: the same measure for `N#Cc1cncn1CC1(c2ccc(Oc3ccc(Cl)cc3)cc2C(F)(F)F)OCCO1` [Compound I-35]: 4.03 ^[a].
`C[Si](C)(C)C#Cc1cncn1CC1(c2ccc(Oc3ccc(Cl)cc3)cc2Cl)OCCO1` [I-RP-01]: the LogP (Table 2 (I-RP compounds)) is 4.54 ^[a].
The same measure, in the same setting: under `C[Si](C)(C)C#Cc1ccc(Oc2ccc(C3(Cn4cncc4C#C[Si](C)(C)C)OCCO3)c(Cl)c2)cc1` [I-RP-02] stands 6.17 ^[a]; under `C[Si](C)(C)C#Cc1cncn1CC1(c2ccc(Oc3ccc(Cl)cc3)cc2C(F)(F)F)OCCO1` [I-RP-04], 4.67 ^[a].
`C[Si](C)(C)C#Cc1cncn1CC1(c2ccc(Oc3ccc(C(F)(F)F)cc3)cc2Cl)OCCO1` [I-RP-05, 1-[(2-{2-chloro-4-[4-(trifluoromethyl)phenoxy]phenyl}-1,3-dioxolan-2-yl)methyl]-5-[(trimethylsilyl)ethynyl]-1H-imidazole] had a chromatographic logP (Table 2 (I-RP compounds)) of 4.59.

Values taken from US20200029563A1, “NOVEL 5-SUBSTITUTED IMIDAZOLYLMETHYLDIOXOLANE DERIVATIVES” (Bayer CropScience Aktiengesellschaft, priority 2016, published 2020).
